Values after ≈ are worked out from the molar mass of the structure shown.
System: KB
Test: Cytotoxicity against human KB cells
Format: functional
Details: read-out: ED50 (the source's name)

| Structure (SMILES) | EC50 [µg/mL] |
| --- | --- |
| CC(=O)OC[C@]12[C@H](OC(C)=O)[C@H](OC(C)=O)[C@@H]3[C@@H](OC(C)=O)[C@@]14O[C@@]3(C)COC(=O)c1cccnc1[C@H](C)[C@H](C)C(=O)O[C@@H]([C@H](OC(=O)c1ccc(=O)n(C)c1)[C@@H]2OC(C)=O)[C@@]4(C)O [EMARGINATINE A] | 4 (≈ 4.45 µM) |
| CC(=O)OC[C@]12[C@H](OC(=O)c3ccccc3)[C@@H](OC(C)=O)[C@@H]3[C@@H](OC(C)=O)[C@@]14O[C@@]3(C)COC(=O)c1cccnc1[C@H](C)[C@H](C)C(=O)O[C@@H]([C@H](OC(=O)c1ccc(=O)n(C)c1)[C@@H]2OC(C)=O)[C@@]4(C)O [EMARGINATINE B] | 0.4 (≈ 0.416 µM) |

From ChEMBL document CHEMBL1151148, “Antitumor agents, 112. Emarginatine B, a novel potent cytotoxic sesquiterpene pyridine alkaloid from Maytenus emarginata” (1990)
